This is an account of results in BindingDB's records for doi:10.3109/14756366.2010.486794 (University of Lisbon, 2011).

Molecules are shown by their SMILES.

In this experiment the target is T1, Neutrophil elastase (Homo sapiens, UniProt P08246).
T1 sequence (P08246 whole entry): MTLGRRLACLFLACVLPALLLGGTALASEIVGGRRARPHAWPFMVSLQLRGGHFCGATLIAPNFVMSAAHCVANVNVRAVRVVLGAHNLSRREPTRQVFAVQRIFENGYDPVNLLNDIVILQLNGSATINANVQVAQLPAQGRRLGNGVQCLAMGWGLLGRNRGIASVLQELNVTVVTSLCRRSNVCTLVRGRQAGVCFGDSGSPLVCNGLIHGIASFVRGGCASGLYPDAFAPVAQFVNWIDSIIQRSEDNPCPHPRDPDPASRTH
Put plainly: Enzyme Kinetic Assay. The following applies: 25 °C. As for the experimental part: The inhibition of the HLE was studied at 25°C by continuously monitoring the absorbance at 410 nm for 20 min of a solution prepared by mixing 10 μL of HLE stock solution (2 μM in 0.05M acetate buffer, pH 5.5) with a solution containing 10 μL of 5 in DMSO, 20 μL of MeOSuc-Ala-Ala-Pro-Val-p-NA (50 mM in DMSO) and 960 μL of 0.1M pH 7.2 HEPES buffer. Control assays, in which the inhibitor was omitted, ran linearly.

A word on the Ki: it is a measure of affinity in units of concentration, obtained from inhibition or displacement. The molecule `CCC1(CC)C(=O)N(c2ccc(CS(=O)(=O)c3ccccc3)cc2)C1=O` [4-oxo-β-lactam (3)] had a Ki of 0.63 nM. In other words, the sub-nanomolar range.
